This note sets out measurements from ChEMBL document CHEMBL2046422, “Structure-activity relationship of nonacidic quinazolinone inhibitors of human microsomal prostaglandin synthase 1 (mPGES 1)” (J Med Chem, 2012).

A word on the IC50: it is the concentration that inhibits the measured activity by half.

Assay [1] is described as follows: Inhibition of rat recombinant mPGES-1.
A further assay deals with T1, Prostaglandin E synthase (Homo sapiens, UniProt O14684).
T1 sequence (O14684 whole entry): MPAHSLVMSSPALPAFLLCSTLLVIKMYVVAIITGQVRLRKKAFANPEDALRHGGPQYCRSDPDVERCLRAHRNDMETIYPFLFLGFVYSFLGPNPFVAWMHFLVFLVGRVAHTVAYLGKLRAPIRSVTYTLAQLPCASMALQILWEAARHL
Briefly: Inhibition of human recombinant mPGES-1.

For `O=C(Nc1ccc(-c2ccc(Cl)c(Cl)c2)cc1)C1=C(O)c2ccccc2S(=O)(=O)N1`, the IC50 in assay [1] came out at 1080 nM; on Prostaglandin E synthase it was 16.5 nM.
